The values below come from ChEMBL document CHEMBL5030556, “Selection and Identification of Novel Antibacterial Agents against Planktonic Growth and Biofilm Formation of Enterococcus faecalis” (J Med Chem, 2021).

pIC50: −log10 of the molar value. Active and inactive are the calls of the source. The calls are words filed in the database; no cut-off is given here. Some results are limits rather than exact numbers.

In data set [1] the test system is Enterococcus faecalis. Briefly: Antibiofilm activity against Enterococcus faecalis assessed as reduction in amount of viable biofilm-embedded bacterial cells at 50 uM measured by YTO 9/PI staining followed by confocal laser scanning microscopy. Type of data set: functional.
Data set [2] relates to Enterococcus faecalis. The data set can be described thus: Inhibition of biofilm formation of Enterococcus faecalis FB-1 assessed as inhibitory rate of formation at 100 uM for 24 hrs measured at 570 nm by crystal violet staining based spectrophotometry. Type of data set: functional.
Data set [3] concerns Enterococcus faecalis. The data set can be described thus: Antimicrobial activity against Enterococcus faecalis OG1RF assessed as reduction in visible bacterial growth incubated for 16 to 20 hrs by microdilution broth assay. The note with it: time 16-20 hrs. Type of data set: functional. On the technique in general: Broth dilution looks for growth in wells or tubes with falling amounts of substance.

Data set [4] is described as follows: Inhibition of Enterococcus faecalis OG1RF YycG autophosphorylation by Kinase-Glo luminescent kinase assay. On the technique in general: Kinase-Glo reads ATP consumption through a luciferase reaction.
For data set [5], the system named is Enterococcus faecalis. The data set can be described thus: Antibiofilm activity against Enterococcus faecalis FB-1 assessed as inhibition of biofilm maturation measured after 24 hr. Type of data set: functional, organism-based.
Data set [6] in a line: Cytotoxicity against african green monkey Vero cells assessed as inhibition of cell growth by MTT assay. Type of data set: cell-based. As to conditions: chlorocebus sabaeus.
The test system of data set [7] is Enterococcus faecalis. The data set can be described thus: Bactericidal activity against Enterococcus faecalis OG1RF assessed as reduction in bacterial colonies incubated for 16 to 20 hrs by microdilution broth analysis. Type of data set: functional. As to conditions: time 16-20 hrs, read-out: MBC99.9.
For data set [8], the system named is Enterococcus faecalis. The data set can be described thus: Bacteriostatic activity against planktonic cells of Enterococcus faecalis OG1RF measured by microdilution broth assay. Type of data set: functional, organism-based.
In data set [9] the test system is Enterococcus faecalis. Briefly: Antibiofilm activity against Enterococcus faecalis FB-1 assessed as eradication of mature biofilm by semiquantitative microtiter assay. Type of data set: functional, organism-based.
Data set [10] in a line: Hemolytic activity against human erythrocytes at 200 uM incubated for 1 hr at 570 nm by spectrophotometry. Type of data set: ADME, tissue-based, Erythrocyte. As to conditions: read-out: Activity.
A short description of data set [11]: Hemolytic activity against human erythrocytes at 50 uM incubated for 1 hr at 570 nm by spectrophotometry. As to conditions: read-out: Activity. Type of data set: ADME, tissue-based, Erythrocyte.
Data set [12] has as its system Enterococcus faecalis. The data set can be described thus: Antibiofilm activity against Enterococcus faecalis FB-1 assessed as inhibition of biofilm maturation at 1.56 uM measured after 24 hr. Type of data set: functional, organism-based.

As for `CC1(C)S[C@@H]2[C@H](NC(=O)[C@H](N)c3ccccc3)C(=O)N2[C@H]1C(=O)O` [AMPICILLIN], the Activity in the data set on Enterococcus faecalis [1] amounted to 24.46%.
One may read the inhibition as the share of the control response that was lost under treatment. One may read the MIC as the lowest concentration found to suppress growth. A word on the pIC50: it is the negative decadic logarithm of the IC50, by convention in mol/L. As a reminder, the CC50 is the concentration that lowers cell viability or growth by half. Take `O=C(C1=C(O)C(=O)N(c2nnc(SCc3ccccc3)s2)C1c1ccccc1F)c1cc2ccccc2o1` (stereo not drawn): the inhibition at 100 µM in the data set on Enterococcus faecalis [2] was 73.8%. In addition, the MIC in the data set with Enterococcus faecalis [3] is more than 200 µM. In data set [4], this molecule had a pIC50 of less than 3.70. Further, the Activity entry in the data set on Enterococcus faecalis [5] is “Dose-Dependent Effect”. Besides, the CC50 in [6] is more than 200 µM. Further, the MBC in the data set with Enterococcus faecalis [7] is more than 200 µM. For the same molecule, the outcome in the data set with Enterococcus faecalis [8] and with Enterococcus faecalis [9] was inactive. For the same molecule, the hemolysis at 1 h, 200 µM in data set [10] was 8.31%. The hemolysis at 1 h, 50 µM in data set [11] stood at 4.44%.
Regarding `O=C(C1=C(O)C(=O)N(c2nnc(SCc3ccc(F)cc3)s2)C1c1cccc(O)c1)c1cc2ccccc2o1` (stereo not drawn), in the data set on Enterococcus faecalis [2], the inhibition at 100 µM amounted to 75.5%. Also, in the data set with Enterococcus faecalis [3], the MIC is more than 200 µM. Besides, the pIC50 in data set [4] was less than 3.70. The Activity result with Enterococcus faecalis [5] was “Dose-Dependent Effect”. Further, the CC50 in data set [6] is more than 200 µM. Also, the MBC in the data set on Enterococcus faecalis [7] is more than 200 µM. The result in the data set with Enterococcus faecalis [12] was Active. Moreover, the result with Enterococcus faecalis [8] and in the data set with Enterococcus faecalis [9] was inactive. Further, the hemolysis at 1 h, 200 µM in data set [10] was 3.83%. Moreover, the hemolysis at 1 h, 50 µM in [11] is 1.94%.
Turning to `O=C(C1=C(O)C(=O)N(c2nnc(SCc3ccccc3)s2)C1c1ccccc1)c1cc2ccccc2o1` (stereo not drawn), the inhibition at 100 µM in the data set on Enterococcus faecalis [2] stood at 72.2%. The MIC with Enterococcus faecalis [3] was more than 200 µM. In data set [4], this molecule showed a pIC50 of 4.66. Further, the values for the Activity entry in the data set on Enterococcus faecalis [5] and in the data set on Enterococcus faecalis [1] were “Dose-Dependent Effect” and 26.66%, respectively. Moreover, in data set [6], the CC50 was more than 200 µM. Further, the MBC in the data set on Enterococcus faecalis [7] is more than 200 µM. Also, the outcome with Enterococcus faecalis [8] was inactive. Further, the hemolysis at 1 h, 200 µM in [10] was found to be 7.01%. The hemolysis at 1 h, 50 µM in data set [11] amounted to 4.16%.
With `CCCCCCCCCC(=O)N[C@@H](Cc1c[nH]c2ccccc12)C(=O)N[C@H](CC(N)=O)C(=O)N[C@@H](CC(=O)O)C(=O)N[C@@H]1C(=O)NCC(=O)N[C@@H](CCCN)C(=O)N[C@@H](CC(=O)O)C(=O)N[C@H](C)C(=O)N[C@@H](CC(=O)O)C(=O)NCC(=O)N[C@H](CO)C(=O)N[C@@H]([C@H](C)CC(=O)O)C(=O)N[C@@H](CC(=O)c2ccccc2N)C(=O)O[C@@H]1C`, in the data set on Enterococcus faecalis [1], the Activity is 8.45%.
